Experiment [1] has as its target HBV C150Bo capsid protein (HBV CA protein) (Hepatitis B virus genotype D subtype adw, UniProt P03147, C107A/C48A/C61A/R150C). Nature of the experiment: HBV assembly assay (fluorescence quenching in vitro assembly). It counts as biochemical. Conditions: for Activity in HBV assembly assay: at 10 μM.
Experiment [2] deals with HBV replication in HepG2-2.2.15 cells. As to the kind of experiment: Dot-blot assay of HBV replication. It counts as cell-based. As to conditions: Hepatitis B virus, 144 h. The protocol:
Compounds active in the HBV assembly assay are tested for their activity and toxicity in cellular assay. In the first anti-viral assay, the ability of compounds to inhibit HBV replication in an HBV-producing hepatoma cell line using the dot-blot method is evaluated.
Briefly, confluent monolayers of HepG2-2.2.15 cells are incubated with complete medium containing various concentrations of a test compound. Three days later, the culture medium is replaced with fresh medium containing the appropriately diluted test compound. Six days following the initial administration of the test compound, the cell culture supernatant is collected, and cell lysis is performed. The samples are applied onto Nylos membranes and DNA is immobilized to the membrane by UV cross-linking. After pre-hybridization, the HBV probe is added and the hybridization is performed overnight. The membranes are exposed to the Kodak films; antiviral activity is calculated from the reduction in HBV DNA levels (EC50). The EC50 for antiviral activity is calculated from the dose response curves of active compounds.
In the first anti-viral assay, the ability of compounds to inhibit HBV replication in an HBV-producing hepatoma cell line using the dot-blot method was evaluated.
Confluent monolayers of HepG2-2.2.15 cells were incubated with complete medium containing various concentrations of a test compound. Three days later, the culture medium was replaced with fresh medium containing the appropriately diluted test compound. Six days following the initial administration of the test compound, the cell culture supernatant was collected, and cell lysis was performed. The samples were applied onto Nylos membranes and DNA was immobilized to the membrane by UV cross-linking. After pre-hybridization, the HBV probe was added and the hybridization was performed overnight. The membranes were exposed to the Kodak films; antiviral activity was calculated from the reduction in HBV DNA levels (EC50). The EC50 for antiviral activity was calculated from the dose response curves of active compounds. […]

The structures appear in SMILES notation.

From US9751857B2, “Hepatitis B antiviral agents” (NOVIRA THERAPEUTICS, INC., priority 2011, dated 2017) come the findings set out here.

HBV C150Bo capsid protein (HBV CA protein), sequence (P03147 1-150 C48A/C61A/C107A/R150C): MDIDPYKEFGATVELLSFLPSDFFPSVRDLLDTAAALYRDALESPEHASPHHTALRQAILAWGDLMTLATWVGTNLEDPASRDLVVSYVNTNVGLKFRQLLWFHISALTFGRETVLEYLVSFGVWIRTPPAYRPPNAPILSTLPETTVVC

As for `O=C(Nc1cc(F)c(F)c(F)c1)c1ccc(F)c(S(=O)(=O)N2CCC(O)C(F)C2)c1` (single isomer, unassigned) [960D1], the “Activity in HBV assembly assay” value in experiment [1] is listed as “+ (‘+’ indicates >50% activity at 10 μM)”. The same compound yielded an inhibition at 10 µM in experiment [2] of more than 50%.
For the compound `O=C(Nc1cc(F)c(F)c(F)c1)c1ccc(F)c(S(=O)(=O)N2CCC(O)C(F)C2)c1` (single isomer, unassigned) [960D2], the “Activity in HBV assembly assay” value in experiment [1] was “+ (‘+’ indicates >50% activity at 10 μM)”.
As for `CC1CN(S(=O)(=O)c2cccc(C(=O)Nc3cc(F)c(F)c(F)c3)c2)CCC1O` (centres unmarked) [610D2], in experiment [1], the “Activity in HBV assembly assay” value is “+ (‘+’ indicates >50% activity at 10 μM)”. For the same compound, the inhibition at 10 µM in experiment [2] was more than 50%.
For `O=C(Nc1ccc(F)c(C(F)F)c1)c1cccc(S(=O)(=O)N2CCCC2CO)c1` (centres unmarked) [677R], the “Activity in HBV assembly assay” value in experiment [1] was “+ (‘+’ indicates >50% activity at 10 μM)”. Also, in experiment [2], the inhibition at 10 µM is more than 50%.
`O=C(Nc1ccc(F)c(Cl)c1)c1cccc(S(=O)(=O)N2CCC(O)C(Cc3ccccc3)C2)c1` (centres unmarked) [713D2]: in experiment [1], the “Activity in HBV assembly assay” value is reported as “+ (‘+’ indicates >50% activity at 10 μM)”. In experiment [2], the inhibition at 10 µM was more than 50%.
The matching figures for `O=C(Nc1ccc(F)c(Cl)c1)c1cccc(S(=O)(=O)N2CCC(O)C(CO)C2)c1` (centres unmarked) [719D1]: “+ (‘+’ indicates >50% activity at 10 μM)” and more than 50%.
Take `O=C(Nc1ccc(F)c(Cl)c1)c1cccc(S(=O)(=O)N2CCC(CO)C(O)C2)c1` (centres unmarked) [725D1]: in experiment [1], the “Activity in HBV assembly assay” value is recorded as “+ (‘+’ indicates >50% activity at 10 μM)”. Besides, in experiment [2], the inhibition at 10 µM is more than 50%.
Regarding `CC1CN(S(=O)(=O)c2cccc(C(=O)Nc3cc(F)c(F)c(F)c3)c2)CCC1CCO` (centres unmarked) [743D1], the “Activity in HBV assembly assay” value in experiment [1] is on record as “+ (‘+’ indicates >50% activity at 10 μM)”. The inhibition at 10 µM in experiment [2] was more than 50%.
On to `O=C(Nc1ccc(F)c(C(F)F)c1)c1cccc(S(=O)(=O)N2CCC(O)C(F)C2)c1` (centres unmarked) [820D2], for which the “Activity in HBV assembly assay” value in experiment [1] is reported as “+ (‘+’ indicates >50% activity at 10 μM)”. Besides, in experiment [2], the inhibition at 10 µM is more than 50%.
In the case of `O=C(Nc1cc(F)c(F)c(C(F)F)c1)c1cccc(S(=O)(=O)N2CCC(O)C(F)C2)c1` (centres unmarked) [824D2], the “Activity in HBV assembly assay” value in experiment [1] is “+ (‘+’ indicates >50% activity at 10 μM)”. The inhibition at 10 µM in experiment [2] is more than 50%.
With `O=C(Nc1ccc(F)c(Br)c1)c1cccc(S(=O)(=O)NC2CCCC(O)C2)c1` (centres unmarked) [867D2], the “Activity in HBV assembly assay” value in experiment [1] is recorded as “+ (‘+’ indicates >50% activity at 10 μM)”. In experiment [2], this compound showed an inhibition at 10 µM of more than 50%.
Take `O=C(Nc1cc(F)c(F)c(F)c1)c1ccc(F)c(S(=O)(=O)C2CCC(CO)C(O)C2)c1` (centres unmarked) [946D2]: the “Activity in HBV assembly assay” value in experiment [1] was “+ (‘+’ indicates >50% activity at 10 μM)”. The inhibition at 10 µM in experiment [2] is more than 50%.
Consider `O=C(Nc1ccc(F)c(Cl)c1)c1ccc(F)c(S(=O)(=O)N2CCC(CO)C(O)C2)c1` (centres unmarked) [955D1], for which, in experiment [1], the “Activity in HBV assembly assay” value was “+ (‘+’ indicates >50% activity at 10 μM)”. This compound also came in with an inhibition at 10 µM in experiment [2] of more than 50%.
For `O=C(Nc1ccc(F)c(Cl)c1)c1ccc(F)c(S(=O)(=O)N2CCC(CO)C(O)C2)c1` (centres unmarked) [955D2], the “Activity in HBV assembly assay” value in experiment [1] is listed as “+ (‘+’ indicates >50% activity at 10 μM)”.
Take `O=C(Nc1ccc(F)c(Cl)c1)c1ccc(Cl)c(S(=O)(=O)N2CCCC2CO)c1` (centres unmarked) [1094S]: the “Activity in HBV assembly assay” value in experiment [1] was “+ (‘+’ indicates >50% activity at 10 μM)”. In experiment [2], this compound gave an inhibition at 10 µM of more than 50%.
Turning to `O=C(Nc1ccc(F)c(Cl)c1)c1cc(S(=O)(=O)NC2CC(O)C2)ccc1Cl` (centres unmarked) [1134CT2], the “Activity in HBV assembly assay” value in experiment [1] was “+ (‘+’ indicates >50% activity at 10 μM)”. Also, in experiment [2], the inhibition at 10 µM was more than 50%.
For `O=C(Nc1cc(F)c(F)c(Cl)c1)c1ccc(F)c(S(=O)(=O)N2CCC(O)C(F)C2)c1` (centres unmarked) [1135D1], in experiment [1], the “Activity in HBV assembly assay” value is “+ (‘+’ indicates >50% activity at 10 μM)”. In experiment [2], this compound returned an inhibition at 10 µM of more than 50%.
Consider `O=C(Nc1cc(F)c(F)c(F)c1)c1cc(S(=O)(=O)NC2CC(O)C2)c(F)cc1Cl` (centres unmarked) [1374CT1], for which the “Activity in HBV assembly assay” value in experiment [1] is “+ (‘+’ indicates >50% activity at 10 μM)”. Also, the inhibition at 10 µM in experiment [2] is more than 50%.
Take `O=C(Nc1cc(F)c(F)c(F)c1)c1cc(S(=O)(=O)NC2CC(O)C2)c(F)cc1Cl` (centres unmarked) [1374CT2]: the “Activity in HBV assembly assay” value in experiment [1] is on record as “+ (‘+’ indicates >50% activity at 10 μM)”.
As to `O=C(Nc1ccc(F)c(F)c1)c1cc(S(=O)(=O)NC2CC(O)C2)c(F)cc1Cl` (centres unmarked) [1378CT2], the “Activity in HBV assembly assay” value in experiment [1] is “+ (‘+’ indicates >50% activity at 10 μM)”. Besides, the inhibition at 10 µM in experiment [2] was more than 50%.
Regarding `COC(=O)C1=C(C)NC(c2ccccn2)=NC1c1ccc(F)cc1Cl` (centres unmarked) [HAP-1, reference compound], the “EC50 in HBV assembly assay” value in experiment [1] (control compounds) is on record as “consistent with the literature”.
In the case of `O=C(Nc1cccc(Br)c1)c1cccc(S(=O)(=O)N2CCC(CO)CC2)c1` [compound 065], in experiment [1], the “Activity in HBV assembly assay” value is recorded as “+ (‘+’ indicates >50% activity at 10 μM)”. In experiment [2], this compound had an inhibition at 10 µM of more than 50%.
Turning to `O=C(Nc1cccc(Br)c1)c1cccc(S(=O)(=O)N2CC(O)C2)c1` [compound 078], the “Activity in HBV assembly assay” value in experiment [1] is “+ (‘+’ indicates >50% activity at 10 μM)”. Also, the inhibition at 10 µM in experiment [2] is more than 50%.
Regarding `CN(CCO)S(=O)(=O)c1cccc(C(=O)Nc2cccc(Br)c2)c1` [compound 079], the “Activity in HBV assembly assay” value in experiment [1] is recorded as “+ (‘+’ indicates >50% activity at 10 μM)”. This compound registered an inhibition at 10 µM in experiment [2] of more than 50%.
For the compound `CC(=O)N1CCN(S(=O)(=O)c2cccc(C(=O)Nc3cccc(Br)c3)c2)CC1` [compound 119], in experiment [1], the “Activity in HBV assembly assay” value is recorded as “+ (‘+’ indicates >50% activity at 10 μM)”. Besides, in experiment [2], the inhibition at 10 µM was more than 50%.
For `CCCC(=O)N1CCN(S(=O)(=O)c2cccc(C(=O)Nc3cccc(Br)c3)c2)CC1` [compound 121] the same measures were “+ (‘+’ indicates >50% activity at 10 μM)” and more than 50%.
Turning to `O=C(Nc1cccc(Br)c1)c1cccc(S(=O)(=O)N2CCN(c3ccncc3)CC2)c1` [compound 126], the “Activity in HBV assembly assay” value in experiment [1] was “+ (‘+’ indicates >50% activity at 10 μM)”. The compound also returned an inhibition at 10 µM in experiment [2] of more than 50%.
As for `O=C(Nc1cccc(Br)c1)c1cccc(S(=O)(=O)N2CCN(C(=O)C3(O)CC3)CC2)c1` [compound 129], in experiment [1], the “Activity in HBV assembly assay” value is given as “+ (‘+’ indicates >50% activity at 10 μM)”. In experiment [2], this compound returned an inhibition at 10 µM of more than 50%.
In the case of `Cc1cc(NC(=O)c2cccc(S(=O)(=O)N3CCN(C(=O)C4CC4)CC3)c2)ccc1F` [compound 148], in experiment [1], the “Activity in HBV assembly assay” value is “+ (‘+’ indicates >50% activity at 10 μM)”. Moreover, the inhibition at 10 µM in experiment [2] is more than 50%.
For the compound `COC1CN(S(=O)(=O)c2cccc(C(=O)Nc3cccc(Cl)c3)c2)C1` [compound 191], in experiment [1], the “Activity in HBV assembly assay” value is “+ (‘+’ indicates >50% activity at 10 μM)”. Besides, in experiment [2], the inhibition at 10 µM was more than 50%.
In the case of `O=C(Nc1ccc(F)c(Cl)c1)c1cccc(S(=O)(=O)N2CCCC2CO)c1` (centres unmarked) [compound 208], the “Activity in HBV assembly assay” value in experiment [1] was “+ (‘+’ indicates >50% activity at 10 μM)”. In experiment [2], this compound displayed an inhibition at 10 µM of more than 50%.
Consider `O=C(Nc1cc(F)c(F)c(F)c1)c1cccc(S(=O)(=O)N2CCC(CO)CC2)c1` [compound 258], for which the “Activity in HBV assembly assay” value in experiment [1] is listed as “+ (‘+’ indicates >50% activity at 10 μM)”. In experiment [2], this compound registered an inhibition at 10 µM of more than 50%.
Turning to `O=C(Nc1cc(F)c(F)c(F)c1)c1cccc(S(=O)(=O)N2CCC(O)CC2)c1` [compound 318], the “Activity in HBV assembly assay” value in experiment [1] was “+ (‘+’ indicates >50% activity at 10 μM)”. Also, in experiment [2], the inhibition at 10 µM was more than 50%.

The term inhibition denotes the drop in the measured response relative to a control, in per cent.
